Columns and labels:
[1] = target: glucagon-like peptide 1 receptor (GLP-1R) (Homo sapiens, UniProt P43220); test: cellular assay, agonist activity at GLP-1R; assay type: cell-based
Excerpt: This disclosure relates to a dual agonist peptide(s) as well as pharmaceutical dosage formulations comprising, and methods for using, the same. The dual agonist peptides have affinity for, and in preferred embodiments about equal affinity for, glucagon-like peptide 1 receptor (GLP-1R) and glucagon receptor (GCGR), as may be determined using a cellular assay. In some embodiments, this disclosure provides pharmaceutical dosage formulations configured to induce weight loss in a human being with fatty liver disease. In some embodiments, the human being may, or may not, suffer from type 2 diabetes. In some embodiments, the disclosure provides pharmaceutical dosage formulations configured to reduce pathogenic plasma lipid mediators. As used herein, “pathogenic” serum lipid mediators, included but are not limited to the following reactive lipid species: malondialdehyde (MDA), isolevuglandins (IsoLG), methyglyoxal (MGO), 4-oxononenal (ONE), and 4-hydroxynonenal (HNE). Oxidized phospholipids include 1-palmitoyl-2-oxovaleroyl-sn-glycero-3-phosphorylcholine (POVPC), 1-O-alkyl-2-azelaoyl-sn-glycero-3-phophorylcholine (azPAF), 1-(Palmitoyl)-2-(5-keto-6-octene-dioyl) phosphatidylcholine (KOdiA-PC), 1-palmitoyl-2-F2-isoprostane-sn-glycero-3-phosphocholine (F2IsoP-PC), and 1-palmitoyl-2-(5,6)-epoxyisoprostane E2-sn-glycero-3-phosphocholine (PEIPC). […]

liver fat content = test: Phase 1 12-week NAFLD study (Example 1): liver fat content by MRI-PDFF; assay type: in vivo, human; settings: for absolute reduction in liver fat (MRI-PDFF): week 12, NAFLD; for relative reduction in liver fat (MRI-PDFF) / proportion of patients with at least 30% reduction in liver fat content / proportion of patients with at least 50% reduction in liver fat content / proportion of patients with normalization in liver fat content (equal or below 5%): week 12
Excerpt: Provided herein is disclosure of a Phase 1, multicenter, randomized, double-blind, placebo-controlled study to assess the effects of Pemvidutide (also termed herein as ALT-801), the safety of Pemvidutide and effects on hepatic fat fraction, anthropometric parameters, lipid metabolism, inflammatory markers and fibrosis markers in diabetic and non-diabetic (type 2 diabetes) overweight and obese (BMI 28.0 kg/m^2) subjects with NAFLD. This study was designed to assess changes in hepatic fat fraction by MRI-PDFF (magnetic resonance imaging-proton density fat fraction) in diabetic and non-diabetic overweight and obese subjects with NAFLD after 12 weeks of ALT-801 treatment. The trial was conducted without adjunctive diet and exercise interventions. The study assessed changes in body weight, lipid metabolism, metabolic markers, and inflammatory markers and safety and tolerability of ALT-801 after 12 weeks of treatment. Subjects were stratified for the presence or absence of diabetes at baseline. Fibroscan and cT1 assessments evaluated changes in liver inflammatory and fibrotic activity at the end of 12 weeks of treatment.
Overweight and obese volunteers with BMI ≥28 kg/m^2 were studied because this is the typical population of individuals with NAFLD, and these subjects are able to better tolerate the predicted Pharmacodynamics (PD) effect of weight loss and could even benefit from treatment. A hepatic fat fraction of 10% has been typical for the evaluation of hepatic fat fraction in subjects with NAFLD. In other words, individuals with a liver fat fraction of 10% or greater are typically diagnosed with NAFLD. Diabetic subjects that require insulin, sulfonylureas or DDP-4 inhibitors for control of diabetes were excluded in this study. Exclusions were instituted that might otherwise affect an accurate assessment of the effects of ALT-801 on safety or PD. The BMI upper limit is set to 45 kg/m^2 as subjects over this BMI are no likely to fit into the MRI scanner.
The study, described in this example, was carried out in 94 subjects overweight and obese (body mass index [BMI] ≥28.0 kg/m^2) Type 2 diabetic and non-diabetic subjects with nonalcoholic fatty liver disease (NAFLD) over about 4.5 months, including up to a 35-day screening period, and 85-day treatment period and a 25-day follow-up period, with treatment with ALT-801 (a composition comprising SEQ ID NO.: 1, “study medication”) or placebo administered by subcutaneous (SC) injection once weekly for up to twelve (12) doses.
The safety objective of this study was to assess the safety and tolerability of ALT-801 in 18-65 years old subjects with NAFLD (NAFLD without significant fibrosis, defined as FibroScan® controlled attenuation parameter (CAP) ≥280 dB/m and liver stiffness measurement (LSM)<10 kPa (i.e., indicating the absence of significant fibrosis), magnetic resonance imaging derived proton density fat fraction (MRI-PDFF) ≥10%), hemoglobin Alc (HbAlc) of less than 9.5%, and alanine aminotransferase (ALT) or aspartate aminotransferase (AST) values of ≤[…]. The pharmacodynamic (PD) objectives of this study were to evaluate the effects of ALT-801 on hepatic fat fraction, anthropometric parameters, lipid metabolism, metabolic markers, inflammatory markers, fibrosis markers, and lipotoxicity markers. The pharmacokinetic (PK) objectives of this study were to evaluate the effects of ALT-801 and metformin exposure (drug interactions) on the subjects (e.g., ALT-801 and metformin concentrations in blood over time).
After providing informed consent, subjects underwent a screening period of up to 35 days. Subjects were instructed on how to maintain their normal diets, alcohol consumption and physical activities and not to start any new diets, supplements, or exercise programs at any time while participating in the study. […]

Chain of glucagon-like peptide 1 receptor (GLP-1R) (P43220 24-463): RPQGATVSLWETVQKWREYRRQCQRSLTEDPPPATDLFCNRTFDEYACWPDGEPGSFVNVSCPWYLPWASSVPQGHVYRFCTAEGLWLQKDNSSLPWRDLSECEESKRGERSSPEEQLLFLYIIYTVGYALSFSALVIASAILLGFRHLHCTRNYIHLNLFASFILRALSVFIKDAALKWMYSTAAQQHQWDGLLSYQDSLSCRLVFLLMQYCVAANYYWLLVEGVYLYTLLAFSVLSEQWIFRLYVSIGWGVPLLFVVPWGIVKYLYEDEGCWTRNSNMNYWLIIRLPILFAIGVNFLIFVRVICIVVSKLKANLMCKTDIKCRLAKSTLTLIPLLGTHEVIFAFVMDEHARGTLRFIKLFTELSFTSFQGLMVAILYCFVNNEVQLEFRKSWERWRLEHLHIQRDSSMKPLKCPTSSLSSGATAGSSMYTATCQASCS

SMILES: CC[C@H](C)[C@H](NC(=O)[C@H](Cc1ccccc1)NC(=O)[C@H](CCC(=O)O)NC(=O)[C@@H]1CCCCNC(=O)CC[C@H](NC(=O)[C@H](CC(=O)O)NC(=O)[C@H](CC(C)C)NC(=O)[C@H](Cc2ccc(O)cc2)NC(=O)[C@H](CCCCN)NC(=O)[C@H](CO)NC(=O)[C@H](Cc2ccc(O)cc2)NC(=O)[C@H](CC(=O)O)NC(=O)[C@H](CO)NC(=O)[C@@H](NC(=O)[C@H](Cc2ccccc2)NC(=O)[C@@H](NC(=O)CNC(=O)[C@H](CCC(N)=O)NC(=O)C(C)(C)NC(=O)[C@@H](N)Cc2c[nH]cn2)[C@@H](C)O)[C@H](C)O)C(=O)N[C@@H](CCCCNC(=O)C2O[C@@H](OCCCCCCCCCCCCCCCCCC(=O)O)C(O)C(O)[C@@H]2O)C(=O)N[C@@H](C)C(=O)N[C@@H](C)C(=O)N1)C(=O)N[C@@H](CCC(N)=O)C(=O)N[C@@H](Cc1c[nH]c2ccccc12)C(=O)N[C@@H](CC(C)C)C(=O)N[C@@H](CC(C)C)C(=O)N[C@@H](CCC(N)=O)C(=O)N[C@H](C(N)=O)[C@@H](C)O (some centres unmarked) [ALT-801, Pemvidutide]
- EC50 [1]: ~0.04 nM
- absolute reduction in liver fat (MRI-PDFF) (liver fat content; 1.2 mg SC once weekly): 8.9%
- relative reduction in liver fat (MRI-PDFF) (liver fat content; 1.2 mg once weekly): 46.6%
- proportion of patients with at least 30% reduction in liver fat content (liver fat content; 1.2 mg): 65 % of patients
- proportion of patients with at least 50% reduction in liver fat content (liver fat content; 1.2 mg): about 40 % of patients
- proportion of patients with normalization in liver fat content (equal or below 5%) (liver fat content; 1.2 mg): 20 % of patients
- absolute reduction in liver fat (MRI-PDFF) (liver fat content; 1.8 mg SC once weekly): 14.7%
- relative reduction in liver fat (MRI-PDFF) (liver fat content; 1.8 mg once weekly): 68.5%
- proportion of patients with at least 30% reduction in liver fat content (liver fat content; 1.8 mg): 94.4 % of patients
- proportion of patients with at least 50% reduction in liver fat content (liver fat content; 1.8 mg): 72.2 % of patients
- proportion of patients with normalization in liver fat content (equal or below 5%) (liver fat content; 1.8 mg): 55.6 % patients
- absolute reduction in liver fat (MRI-PDFF) (liver fat content; 2.4 mg SC once weekly (4-week titration)): 11.3%
- relative reduction in liver fat (MRI-PDFF) (liver fat content; 2.4 mg once weekly): 57.1%
- proportion of patients with at least 30% reduction in liver fat content (liver fat content; 2.4 mg): 85 % of patients
- proportion of patients with at least 50% reduction in liver fat content (liver fat content; 2.4 mg): 70%
- proportion of patients with normalization in liver fat content (equal or below 5%) (liver fat content; 2.4 mg): 50.0%
- relative reductions in liver fat (study conclusion) (liver fat content; 12 weeks): > 60%
